# Test results taken from patent US12472170B2, “Use of glutamate 2B receptor antagonists and sigma receptor agonists as antitussives” (Seyltx, Inc., priority 2019, dated 2025).
# “And” between values parts separate entries of the source, which are not always exact repeats. Identical values can stand only once.
# Tested on: citric acid (1M) evoked cough in guinea pigs
# Assay: Citric acid (1M) aerosol-evoked coughs and sneezes in conscious guinea pigs after oral pre-treatment
# Type: in vivo, Male Dunkin Hartley guinea pigs
# Procedure: The guinea pig species used in one study was twenty four Male Dunkin Hartley guinea pigs, each weighing between 300 and 350 g, which were supplied by Marshall Bioresources Ltd, UK.
# A test compound, Ifenprodil, and Gefapixant (in powder form) were prepared and formulated by initially adding 100% propylene glycol at the required volume for the final treatment buffer. The additional buffer ingredients were added in a stepwise fashion, initially solutol and then captisol. Each ingredient was added in a volume equivalent to that which is required for the final volume of treatment buffer for the stock formulation.
# In particular, for Gefapixant, this was 0.7 mg/mL, a concentration that delivers 3.5 mg/Kg in a dose volume of 5 mL/Kg. For Ifenprodil, this was 0.3 mg/mL, a concentration that delivers 1.5 mg/Kg in a dose volume of 5 mL/Kg.
# Prior to the addition of each buffer ingredient, the test compound formulations were sonicated for 15 min using a Branson 1510 Sonicator. Afterwards, the initial formulation of the test compound and Gefapixant were diluted with a prepared buffer vehicle to provide additional dosing formulations. This was 0.01 to 0.2 mg/ml, preferably 0.06 mg/mL, a dose that delivers 0.3 mg/Kg in a dose volume of 5 mL/Kg.
# The final test compound buffer vehicle comprised of 10:10:80 mix of propylene glycol:20% Solutol in PBS:5% Captisol in PBS.
# All final test and control formulations were sonicated for 30 min prior to dosing to generate an even suspension or to ensure that the formulation had visibly dissolved.
# The animals were first pre-treated (5 mL/Kg, p.o.) with the vehicle, the test compound, or Gefapixant prior to tussive agent (citric acid) exposure, using the amounts set out in Table 1 below. In each case, the route of administration of the treatment was oral.
# Animals receiving Gefapixant (3.5 mg/Kg) were dosed 2 hours prior to tussive agent exposure. Animals receiving Ifenprodil (1.5 mg/Kg) were dosed 30 minutes prior to tussive agent exposure.
# 10 min prior to the tussive evaluation, each animal was individually placed into a purpose built exposure chamber with a supplied airflow through a nebuliser of 2 L/min, and allowed to settle into its new environment.
# Following the acclimatisation period, each animal was then exposed for 10 min to an aerosol of 1M citric acid using an ultrasonic nebuliser (Aerogen) set at a nominal liquid consumption rate of 0.6 mL/min.
# Coughs and sneezes elicited during the 10 minute aerosol of 1M citric acid, and a subsequent 5 minute observation period, were recorded manually to monitor the animal's welfare. […] The data was analysed for onset of cough, cough numbers and frequency, and sneezes.
# The following measurements and assessments were taken for each guinea pig: • Mean total number of coughs evoked in each treatment group • Mean onset of first cough in each group • Mean number of coughs per minute during citric acid exposure in each treatment group
# Inter-group deviations were statistically analyzed by a one-way analysis of variance (ANOVA). In the case of significant difference in the mean values among the different levels of treatment, comparisons versus the citric acid vehicle group were carried out using the Dunnett's test. p<0.05 was considered statistically significant.
# [1] = Mean of n=6 animals, 10 min Citric acid (1M) exposure, Gefapixant 3.5 mg/Kg p.o., Ifenprodil 1.5 mg/Kg
# [2] = Mean of n=6 animals, Post Exposure (5 mins) after 10 min Citric acid (1M), Gefapixant 3.5 mg/Kg p.o., Ifenprodil 1.5 mg/Kg
# [3] = Total of n=6 animals, 10 min Citric acid (1M) exposure, Gefapixant 3.5 mg/Kg p.o., Ifenprodil 1.5 mg/Kg
# [4] = Total of n=6 animals, Post Exposure (5 mins) after 10 min Citric acid (1M), Gefapixant 3.5 mg/Kg p.o., Ifenprodil 1.5 mg/Kg
# [5] = individual animals (ID 1-6), 10 min Citric acid (1M) exposure, Gefapixant 3.5 mg/Kg p.o., Ifenprodil 1.5 mg/Kg
# [6] = individual animals (ID 1-6), Post Exposure (5 mins) after 10 min Citric acid (1M), Gefapixant 3.5 mg/Kg p.o., Ifenprodil 1.5 mg/Kg
smiles,measurement,setting,value
COc1cc(C(C)C)c(Oc2cnc(N)nc2N)cc1S(N)(=O)=O [Gefapixant],"Total Coughs, Mean","10 min citric acid (1M) exposure + 5 min post exposure, group mean, n=6",23.67
same,"Total Coughs, individual animal","10 min citric acid (1M) exposure + 5 min post exposure, individual animals 1-6",16 and 26 and 24 and 23 and 33 and 20
same,average number of coughs per animal (total number of coughs),"10 min citric acid (1M) exposure + 5 min recovery, Gefapixant 3.5 mg/Kg p.o. 2 hrs prior, Ifenprodil 1.5 mg/Kg p.o. 30 min prior, n=6",23.67 coughs per animal
same,reduction in mean cough frequency vs untreated control,"Ifenprodil 1.5 mg/kg (p<0.01), Gefapixant 3.5 mg/kg (p<0.05)",20%
same,"Sneezes, Observation Period 0-1, group Mean",[1],0.2
same,"Sneezes, Observation Period 1-2, group Mean",[1],0.3
same,"Sneezes, Observation Period 2-3, group Mean",[1],0.3
same,"Sneezes, Observation Period 3-4, group Mean",[1],0.2
same,"Sneezes, Observation Period 4-5, group Mean",[1],0.5
same,"Sneezes, Observation Period 5-6, group Mean",[1],0.5
same,"Sneezes, Observation Period 6-7, group Mean",[1],0.5
same,"Sneezes, Observation Period 7-8, group Mean",[1],0.0
same,"Sneezes, Observation Period 8-9, group Mean",[1],0.5
same,"Sneezes, Observation Period 9-10, group Mean",[1],0.2
same,"Sneezes, Observation Period 10-11, group Mean",[2],0.0
same,"Sneezes, Observation Period 11-12, group Mean",[2],0.0
same,"Sneezes, Observation Period 12-13, group Mean",[2],0.0
same,"Sneezes, Observation Period 13-14, group Mean",[2],0.0
same,"Sneezes, Observation Period 14-15, group Mean",[2],0.0
same,"Total Sneezes, group Mean","Mean of n=6 animals, whole observation period 0-15 (10 min Citric acid (1M) exposure + Post Exposure 5 mins), Gefapixant 3.5 mg/Kg p.o., Ifenprodil 1.5 mg/Kg",3.17
same,"Sneezes, Observation Period 0-1, group Total",[3],1.0
same,"Sneezes, Observation Period 1-2, group Total",[3],2.0
same,"Sneezes, Observation Period 2-3, group Total",[3],2.0
same,"Sneezes, Observation Period 3-4, group Total",[3],1.0
same,"Sneezes, Observation Period 4-5, group Total",[3],3.0
same,"Sneezes, Observation Period 5-6, group Total",[3],3.0
same,"Sneezes, Observation Period 6-7, group Total",[3],3.0
same,"Sneezes, Observation Period 7-8, group Total",[3],0.0
same,"Sneezes, Observation Period 8-9, group Total",[3],3.0
same,"Sneezes, Observation Period 9-10, group Total",[3],1.0
same,"Sneezes, Observation Period 10-11, group Total",[4],0.0
same,"Sneezes, Observation Period 11-12, group Total",[4],0.0
same,"Sneezes, Observation Period 12-13, group Total",[4],0.0
same,"Sneezes, Observation Period 13-14, group Total",[4],0.0
same,"Sneezes, Observation Period 14-15, group Total",[4],0.0
same,first onset of cough,"citric acid (1M) exposure, Gefapixant 3.5 mg/Kg p.o., Ifenprodil 1.5 mg/Kg p.o., group mean, n=6",49.7 s
same,average number of sneezes per animal,"citric acid (1M) exposure, Gefapixant 3.5 mg/Kg p.o., Ifenprodil 1.5 mg/Kg p.o., n=6",3.17 sneezes per animal
same,"Onset (sec), Mean","citric acid (1M) exposure, group mean, n=6",49.7 s
same,"Onset (sec), individual animal","citric acid (1M) exposure, individual animals 1-6",72 s and 24 s and 64 s and 36 s and 32 s and 70 s
same,"Sneezes, Observation Period 0-1",[5],0 (5×) and 1
same,"Sneezes, Observation Period 1-2",[5],0 (4×) and 1 (2×)
same,"Sneezes, Observation Period 2-3",[5],1 (2×) and 0 (4×)
same,"Sneezes, Observation Period 3-4",[5],0 (5×) and 1
same,"Sneezes, Observation Period 4-5",[5],1 (3×) and 0 (3×)
same,"Sneezes, Observation Period 5-6",[5],0 (3×) and 1 (3×)
same,"Sneezes, Observation Period 6-7",[5],1 (3×) and 0 (3×)
same,"Sneezes, Observation Period 7-8",[5],0
same,"Sneezes, Observation Period 8-9",[5],1 (3×) and 0 (3×)
same,"Sneezes, Observation Period 9-10",[5],0 (5×) and 1
same,"Sneezes, Observation Period 10-11",[6],0
same,"Sneezes, Observation Period 11-12",[6],0
same,"Sneezes, Observation Period 12-13",[6],0
same,"Sneezes, Observation Period 13-14",[6],0
same,"Sneezes, Observation Period 14-15",[6],0
same,Total Sneezes,"individual animals (ID 1-6), whole observation period 0-15 (10 min Citric acid (1M) exposure + Post Exposure 5 mins), Gefapixant 3.5 mg/Kg p.o., Ifenprodil 1.5 mg/Kg",4 (2×) and 3 and 5 and 2 and 1
same,"Cough, observation period 0-1, Mean","min 0-1 of citric acid (1M) exposure, group mean, n=6",0.5
same,"Cough, observation period 0-1, individual animal","min 0-1 of citric acid (1M) exposure, individual animals 1-6",0 (3×) and 1 (3×)
same,"Cough, observation period 0-1, Total","min 0-1 of citric acid (1M) exposure, sum over 6 animals",3.0
same,"Cough, observation period 1-2, Mean","min 1-2 of citric acid (1M) exposure, group mean, n=6",2.0
same,"Cough, observation period 1-2, individual animal","min 1-2 of citric acid (1M) exposure, individual animals 1-6",1 (2×) and 3 (2×) and 2 (2×)
same,"Cough, observation period 1-2, Total","min 1-2 of citric acid (1M) exposure, sum over 6 animals",12.0
same,"Cough, observation period 2-3, Mean","min 2-3 of citric acid (1M) exposure, group mean, n=6",3.0
same,"Cough, observation period 2-3, individual animal","min 2-3 of citric acid (1M) exposure, individual animals 1-6",1 and 3 (2×) and 4 and 5 and 2
same,"Cough, observation period 2-3, Total","min 2-3 of citric acid (1M) exposure, sum over 6 animals",18.0
same,"Cough, observation period 3-4, Mean","min 3-4 of citric acid (1M) exposure, group mean, n=6",2.3
same,"Cough, observation period 3-4, individual animal","min 3-4 of citric acid (1M) exposure, individual animals 1-6",2 (3×) and 3 and 4 and 1
same,"Cough, observation period 3-4, Total","min 3-4 of citric acid (1M) exposure, sum over 6 animals",14.0
same,"Cough, observation period 4-5, Mean","min 4-5 of citric acid (1M) exposure, group mean, n=6",2.8
same,"Cough, observation period 4-5, individual animal","min 4-5 of citric acid (1M) exposure, individual animals 1-6",2 (2×) and 3 (3×) and 4
same,"Cough, observation period 4-5, Total","min 4-5 of citric acid (1M) exposure, sum over 6 animals",17.0
same,"Cough, observation period 5-6, Mean","min 5-6 of citric acid (1M) exposure, group mean, n=6",2.7
same,"Cough, observation period 5-6, individual animal","min 5-6 of citric acid (1M) exposure, individual animals 1-6",1 and 3 (3×) and 2 and 4
same,"Cough, observation period 5-6, Total","min 5-6 of citric acid (1M) exposure, sum over 6 animals",16.0
same,"Cough, observation period 6-7, Mean","min 6-7 of citric acid (1M) exposure, group mean, n=6",2.3
same,"Cough, observation period 6-7, individual animal","min 6-7 of citric acid (1M) exposure, individual animals 1-6",1 and 2 (3×) and 4 and 3
same,"Cough, observation period 6-7, Total","min 6-7 of citric acid (1M) exposure, sum over 6 animals",14.0
same,"Cough, observation period 7-8, Mean","min 7-8 of citric acid (1M) exposure, group mean, n=6",1.7
same,"Cough, observation period 7-8, individual animal","min 7-8 of citric acid (1M) exposure, individual animals 1-6",2 (4×) and 1 (2×)
same,"Cough, observation period 7-8, Total","min 7-8 of citric acid (1M) exposure, sum over 6 animals",10.0
same,"Cough, observation period 8-9, Mean","min 8-9 of citric acid (1M) exposure, group mean, n=6",2.0
same,"Cough, observation period 8-9, individual animal","min 8-9 of citric acid (1M) exposure, individual animals 1-6",2 (4×) and 3 and 1
same,"Cough, observation period 8-9, Total","min 8-9 of citric acid (1M) exposure, sum over 6 animals",12.0
same,"Cough, observation period 9-10, Mean","min 9-10 of citric acid (1M) exposure, group mean, n=6",1.7
same,"Cough, observation period 9-10, individual animal","min 9-10 of citric acid (1M) exposure, individual animals 1-6",2 (3×) and 3 and 0 and 1
same,"Cough, observation period 9-10, Total","min 9-10 of citric acid (1M) exposure, sum over 6 animals",10.0
same,"Cough, observation period 10-11, Mean","min 10-11, post exposure, group mean, n=6",1.5
same,"Cough, observation period 10-11, individual animal","min 10-11, post exposure, individual animals 1-6",1 (3×) and 2 (3×)
same,"Cough, observation period 10-11, Total","min 10-11, post exposure, sum over 6 animals",9.0
same,"Cough, observation period 11-12, Mean","min 11-12, post exposure, group mean, n=6",0.5
same,"Cough, observation period 11-12, individual animal","min 11-12, post exposure, individual animals 1-6",0 (3×) and 1 (3×)
same,"Cough, observation period 11-12, Total","min 11-12, post exposure, sum over 6 animals",3.0
same,"Cough, observation period 12-13, Mean","min 12-13, post exposure, group mean, n=6",0.5
same,"Cough, observation period 12-13, individual animal","min 12-13, post exposure, individual animals 1-6",1 (3×) and 0 (3×)
same,"Cough, observation period 12-13, Total","min 12-13, post exposure, sum over 6 animals",3.0
same,"Cough, observation period 13-14, Mean","min 13-14, post exposure, group mean, n=6",0.2
same,"Cough, observation period 13-14, individual animal","min 13-14, post exposure, individual animals 1-6",0 (5×) and 1
same,"Cough, observation period 13-14, Total","min 13-14, post exposure, sum over 6 animals",1.0
same,"Cough, observation period 14-15, Mean","min 14-15, post exposure, group mean, n=6",0.0
same,"Cough, observation period 14-15, individual animal","min 14-15, post exposure, individual animals 1-6",0
same,"Cough, observation period 14-15, Total","min 14-15, post exposure, sum over 6 animals",0.0
